{"source": "paper PMC10674565", "about": "(Pharmaceuticals, 2023)", "key": {"[1]": {"experiment": "Cytotoxicity (MTT) assay, HEK293 cells", "type": "cell-based", "conditions": "human, 1–500 µM, read-out: viability compared to the control", "method": "Caco-2 and HEK93 cells were incubated in a 96-well microplate (10^4 cells per well) with different concentrations (1, 10, 50, 100, and 500 µM) of EMHPS for 24 h. At the end of incubation, 20 μL of 0.5% 3-(4,5-dimethylthiazol-2-yl)-2,5-diphenyltetrazolium bromide (MTT) was added to each well, followed by a 2 h incubation. The MTT solution was then aspirated and 200 μL of […] dimethyl sulfoxide solution (PanEko) was added. Absorption was recorded after 10 min at 530 nm with a Stat Fax 2100 plate reader (Awareness Technology, Palm City, FL, USA). The survival of cells in the presence of EMHPS was calculated according to the equation: (optical density (OD) of test wells − OD of medium)/(OD of control wells − OD of medium) × 100%, where OD is the optical density."}, "[2]": {"target": "ABCB1 (Homo sapiens, UniProt P08183)", "sequence (P08183 whole entry)": "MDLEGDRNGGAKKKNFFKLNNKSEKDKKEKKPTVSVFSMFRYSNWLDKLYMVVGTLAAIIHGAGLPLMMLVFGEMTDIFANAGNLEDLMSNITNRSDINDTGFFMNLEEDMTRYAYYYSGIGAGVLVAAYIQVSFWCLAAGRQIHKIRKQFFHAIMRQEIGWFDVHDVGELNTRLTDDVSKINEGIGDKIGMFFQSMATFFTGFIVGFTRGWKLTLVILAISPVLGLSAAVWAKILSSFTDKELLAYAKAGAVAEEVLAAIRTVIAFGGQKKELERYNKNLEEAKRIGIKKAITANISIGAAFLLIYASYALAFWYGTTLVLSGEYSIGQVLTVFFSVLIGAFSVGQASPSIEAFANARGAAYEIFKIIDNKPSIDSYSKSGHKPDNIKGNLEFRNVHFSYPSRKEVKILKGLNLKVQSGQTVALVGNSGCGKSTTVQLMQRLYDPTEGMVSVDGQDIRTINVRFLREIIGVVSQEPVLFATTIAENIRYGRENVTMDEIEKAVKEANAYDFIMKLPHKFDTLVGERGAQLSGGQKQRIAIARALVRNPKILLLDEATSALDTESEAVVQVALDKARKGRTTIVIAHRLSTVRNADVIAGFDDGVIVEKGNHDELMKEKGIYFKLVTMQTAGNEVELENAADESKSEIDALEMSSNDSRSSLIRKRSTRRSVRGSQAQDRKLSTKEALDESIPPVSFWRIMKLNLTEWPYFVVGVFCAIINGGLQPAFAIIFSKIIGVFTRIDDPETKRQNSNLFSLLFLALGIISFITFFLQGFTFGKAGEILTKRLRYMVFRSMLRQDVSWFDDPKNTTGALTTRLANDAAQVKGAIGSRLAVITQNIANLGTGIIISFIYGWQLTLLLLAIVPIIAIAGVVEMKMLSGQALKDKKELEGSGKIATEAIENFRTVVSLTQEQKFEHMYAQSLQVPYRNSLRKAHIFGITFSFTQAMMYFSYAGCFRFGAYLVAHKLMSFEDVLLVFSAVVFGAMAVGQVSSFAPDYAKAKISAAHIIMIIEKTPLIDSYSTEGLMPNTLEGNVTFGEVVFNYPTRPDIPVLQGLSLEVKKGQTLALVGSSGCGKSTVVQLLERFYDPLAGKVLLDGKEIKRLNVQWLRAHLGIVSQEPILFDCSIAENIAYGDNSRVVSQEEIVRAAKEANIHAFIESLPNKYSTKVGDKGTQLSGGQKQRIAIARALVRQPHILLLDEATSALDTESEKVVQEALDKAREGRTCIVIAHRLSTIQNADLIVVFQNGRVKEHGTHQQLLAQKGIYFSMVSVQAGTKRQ", "experiment": "Effect on ABCB1-mediated transport of fexofenadine through the Caco-2 cells monolayer", "method": "Transport experiments were carried out in Transwell® systems (12 mm Transwell® with 0.4 µm Pore Polycarbonate Membrane Insert, Sterile, «Corning»). The Transwell® system consists of two chambers, apical and basolateral. […] The medium was changed every 2–3 days. The apical and basolateral chambers represent the luminal and blood/mesenteric lymph sides of the gastrointestinal tract, respectively.\nThe transepithelial electrical resistance (TEER) across the cell monolayers was monitored using a Millicell-ERS (electrical resistance system) to assess cell monolayer integrity. For transport studies, only monolayers with a TEER > 500 Ω cm^2 were used.\nTo study the roles of different parts of the EMHPS molecule for its action on ABCB1, experiments with succinic acid were also carried out.\nPrior to the transport experiments, the culture media was aspirated, and the monolayers were washed twice with transport medium and preincubated with EMHPS, succinic acid, or verapamil for 30 min.\nThe data are presented as the mean ± SD from three monolayers.\nThe resulting sample of the transport medium (50 μL) was diluted in 150 μL of the mobile phase, and 100 μL of the resulting solution was injected into the chromatograph. A Phenomenex Synergi 4u Polar-RP 80A (250 × 4.6) chromatographic column was used for analysis. The separation temperature was 35 °C; the flow rate was 1 mL/min. Composition of the mobile phase: acetonitrile (128 mL), deionized water (267.4 mL), acetic acid (6.33 mL), triethylamine to pH = 6.7. […] Detection was carried out at a wavelength of 220 nm.\nHalf maximal inhibitory concentration (IC50) values were determined through nonlinear regression based on the three-parameter logistic function."}, "[3]": {"target": "T1, SLCO1B1 (Homo sapiens, UniProt Q9Y6L6)", "T1 sequence (Q9Y6L6 1-691)": "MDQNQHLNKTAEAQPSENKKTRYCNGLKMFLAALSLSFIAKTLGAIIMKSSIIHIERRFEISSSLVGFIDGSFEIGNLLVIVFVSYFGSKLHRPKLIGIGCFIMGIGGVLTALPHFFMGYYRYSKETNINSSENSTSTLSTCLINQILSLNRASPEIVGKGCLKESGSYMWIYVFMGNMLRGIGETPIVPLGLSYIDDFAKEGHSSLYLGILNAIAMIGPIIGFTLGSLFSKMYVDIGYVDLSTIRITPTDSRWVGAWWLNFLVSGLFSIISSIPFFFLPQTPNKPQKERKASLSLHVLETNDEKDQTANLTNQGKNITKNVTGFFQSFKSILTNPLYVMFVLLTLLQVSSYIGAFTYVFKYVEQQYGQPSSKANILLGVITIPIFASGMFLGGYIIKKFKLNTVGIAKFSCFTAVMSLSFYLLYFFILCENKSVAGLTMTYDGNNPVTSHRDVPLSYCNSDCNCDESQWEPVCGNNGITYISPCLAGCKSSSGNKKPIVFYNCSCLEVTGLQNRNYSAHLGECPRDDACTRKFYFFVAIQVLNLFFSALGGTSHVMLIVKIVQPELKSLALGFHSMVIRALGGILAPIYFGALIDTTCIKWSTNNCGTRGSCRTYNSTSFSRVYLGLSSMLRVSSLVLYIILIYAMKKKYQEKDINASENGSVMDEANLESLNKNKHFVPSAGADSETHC", "conditions": "HEK293-SLCO1B1 vs HEK293, 10 µM"}, "[4]": {"test_system": "CYP3A4 isoenzyme", "set-up": "method as in PMID 21254598", "conditions": "cited from earlier work"}, "[5]": {"test_system": "hemispheric ischemic stroke", "set-up": "method as in doi:10.1007/s11055-018-0652-y", "conditions": "151 patients with hemispheric ischemic stroke; cited from earlier work"}, "[6]": {"test_system": "chronic brain ischemia", "set-up": "method as in PMID 34932280", "conditions": "318 patients with chronic brain ischemia; cited from earlier work"}, "[7]": {"target": "T1, SLCO1B1", "experiment": "Inhibition of SLCO1B1-mediated uptake of atorvastatin in HEK293-SLCO1B1 cells", "type": "in vitro ADME", "set-up": "The SLCO1B1 gene was obtained via synthesis and was cloned into the pEGFP-N1 vector; expressed in transfected cells; host or cells: HEK293", "method": "As a positive inhibition control, rifampicin at similar concentrations was used. Three independent experiments were performed. […] Proteins were precipitated by adding acetonitrile in a 1:1 ratio to the sample. […] The mobile phase gradient program was as follows: 0-0.6 min-35% A and 65% B, 0.6-5.0 min-5% A and 95% B, 5.0-8.0 min-35% A and 65% B. The flow rate and the column temperature were maintained at 300 μL/min and 35 °C. Aliquots (2 μL) of the extracted samples were injected."}, "[8]": {"conditions": "human, Caco-2 cell monolayer on Transwell inserts, probe fexofenadine 150 µmol/L"}, "[9]": {"conditions": "human, HEK293-SLCO1B1 cells, pH 7.4, probe atorvastatin 1 µM"}}}
{"smiles": "CCc1nc(C)ccc1O.O=C(O)CCC(=O)O", "note": "[EMHPS, 2-Ethyl-6-methyl-3-hydroxypyridine succinate]", "values": [{"measurement": "viability at 24 h", "setting": "[1]", "result": "85 to 105", "unit": "%"}, {"measurement": "IC50", "setting": "[2]", "result": "92 ± 24.3", "unit": "µM"}, {"measurement": "decrease of basal-to-apical fexofenadine transport", "setting": "[2]; 200 µM, vs control, Caco-2 monolayer", "result": 52.5, "unit": "%"}, {"measurement": "inhibition at 50 µM", "setting": "[2]; [8]", "result": 50.2, "unit": "%"}, {"measurement": "inhibition at 100 µM", "setting": "[2]; [8]", "result": 72.9, "unit": "%"}, {"measurement": "inhibition at 200 µM", "setting": "[2]; [8]", "result": 90.6, "unit": "%"}, {"measurement": "substrate of SLCO1B1", "setting": "[3]", "result": "not a substrate of SLCO1B1"}, {"measurement": "effect on CYP3A4 isoenzyme", "setting": "[4]", "result": "inducer"}, {"measurement": "neurological status compared with the placebo", "setting": "[5]", "result": "improved the neurological status"}, {"measurement": "benefit over the placebo in basic neurological tests", "setting": "[6]", "result": "statistically significant benefit"}, {"measurement": "IC50", "setting": "[7]", "result": "12.1 ± 7.64", "unit": "µM"}, {"measurement": "inhibition at 100 µM", "setting": "[7]; [9]", "result": 64.7, "unit": "%"}, {"measurement": "inhibition at 500 µM", "setting": "[7]; [9]", "result": 90.6, "unit": "%"}]}
